Measured values as given in US20190032104A1, “RAPID ANTIMICROBIAL SUSCEPTIBILITY TESTING USING HIGH-SENSITIVITY DIRECT DETECTION METHODS” (T2 Biosystems, Inc., priority 2016, published 2019).

How the values were obtained:
Candida albicans = assay: administration to the subject with Candidemia (Candida albicans); format: in vivo, human
Candida albicans isolate = assay: AST testing of isolated colonies, agar-based AST method (e.g., ETEST) or full panel AST device (e.g., VITEK 2); format: cell-based; details: Candida albicans isolate from subject's blood, Example 2
Protocol: (§1) A blood sample is obtained from a subject suspected to be suffering from Candidemia. A portion of the blood sample is used to inoculate a blood culture bottle (e.g., a BD BACTEC™ aerobic blood culture bottle). The blood culture bottles are incubated as recommended by the manufacturer. In parallel, an aliquot of the blood sample obtained from the patient is subjected to a T2MR-based detection method, for example, as described in Example 1 above. In this example, the T2MR-based method identifies Candida albicans as being present in the blood sample.
Next, based on the identification of Candida albicans in the blood sample, the blood culture bottle is sampled by lysis filtration or lysis centrifugation followed by plating of the cell pellet on to Samouraud Glucose media, thereby encouraging growth of Candida albicans and early growth of the isolated colonies. These colonies are subjected to AST testing, either using an agar-based AST method (e.g., ETEST®) or a full panel AST device (e.g., VITEK® 2). Several appropriate anti-fungal drugs are tested, e.g., fluconazole, itraconazole, amphotericin B, micafungin, voriconazole, and caspofungin.

C. albicans isolate = assay: T2MR-based AST, real-time PCR of housekeeping gene as proxy for growth; format: cell-based, Candida albicans; details: media with pre-determined levels of agent, Example 5
Protocol: A blood sample is obtained from a subject suspected to be suffering from Candidemia. The blood sample obtained from the patient is subjected to a T2MR-based detection method, for example, as described above in Example 4. In this example, Candida albicans is identified as being present in the subject's blood sample within 3 h from the start of the assay.
Based on the T2MR-based detection and identification of Candida albicans in the subject's blood, a subsequent blood draw is taken directly to media that contain either no antimicrobial agents or pre-determined levels of antimicrobial agents such as fluconazole, itraconazole, amphotericin B, and caspofungin. Aliquots are taken from these media at time intervals, and the aliquots are subjected to T2MR-based real-time PCR is performed as described, for example, in Example 19 of WO 2012/054639, to detect the expression level of the multiple drug resistance gene MDR1 as well as a housekeeping gene such as beta-actin (ACT1) as a proxy for growth of the C. albicans isolate in the media. […] A growth curve is made by plotting the T2 signal over time.

Candida glabrata = assay: administration to the subject with Candidemia (Candida glabrata); format: in vivo, human; details: appropriate dose, subject with Candidemia (C. glabrata), Example 4
C. glabrata isolate = assay: T2MR-based AST, real-time PCR of housekeeping gene as proxy for growth; format: cell-based, Candida glabrata; details: media with pre-determined levels of agent, Example 4
Protocol: A blood sample is obtained from a subject suspected to be suffering from Candidemia. The blood sample obtained from the patient is subjected to a T2MR-based detection method, for example, the method described in Example 22 of WO 2012/054639 in conjunction with a T2Dx® device. Briefly, PCR is performed using a forward primer that includes the oligonucleotide sequence 5′-GGCATGCCTGTTTGAGCGTC-3′ (SEQ ID NO: 13) and a reverse primer that includes the oligonucleotide sequence 5′-GCTTATTGATATGCTTAAGTTCAGCGGGT-3′ (SEQ ID NO: 14). Magnetic particles conjugated individually to the capture probes described in Table 1 are used to test for the presence of Candida albicans, Candida glabrata, Candida krusei, Candida parapsilosis, and Candida tropicalis. In this example, Candida glabrata is identified as being present in the subject's blood sample within 3 h from the start of the assay.
Based on the T2MR-based detection and identification of Candida glabrata in the subject's blood, a subsequent blood draw is taken directly to media that contain either no antimicrobial agents or pre-determined levels of fluconazole, itraconazole, amphotericin B, or caspofungin. […]

S. aureus isolate [1] = assay: growth on chromogenic media (e.g., CHROMAGAR MRSA); format: cell-based; details: Example 3
Protocol: as §1, with “from bacteremia.” for “from Candidemia.”, “example, the method” for “example, as”, “Example 22 of WO 2012/054639 in conjunction with a T2Dx® device.” for “Example 1 above.”, “identifies S. aureus” for “identifies Candida albicans”, “blood sample within 3 hours from the start of the assay.” for “blood sample.”
(§2) Next, based on the identification of S. aureus in the blood sample, the blood culture bottle is sampled by lysis filtration or lysis centrifugation followed by plating of the cell pellet on to chromogenic media (e.g., CHROMAGAR™ MRSA (Chromagar)) or directly on to an agar-based antimicrobial gradient test (e.g., an ETEST®) in order to test whether the S. aureus isolate from the subject's blood is sensitive to oxacillin, vancomycin, trimethoprim-sulfamethoxazole (BACTRIM™), doxycycline, daptomycin, and linezolid. Additionally, T2MR-based real-time PCR is performed as described, for example, in Example 19 of WO 2012/054639, is used to determine the expression level of antibiotic resistance markers such as mecA. […]

S. aureus isolate [2] = assay: T2MR-based AST with direct cell detection by vancomycin-conjugated magnetic nanoparticles; details: media with pre-determined levels of agent, Example 6
Protocol: as §1, with “In one such example, a blood” for “A blood”, “from bacteremia.” for “from Candidemia.”, “example, the method” for “example, as”, “Example 22 of WO 2012/054639 in conjunction with a T2Dx® device.” for “Example 1 above.”, “identifies S. aureus” for “identifies Candida albicans”, “blood sample within 3 hours from the start of the assay.” for “blood sample.”
Based on the T2MR-based detection and identification of S. aureus in the subject's blood, a subsequent blood draw is taken directly to media that contain either no antimicrobial agents or pre-determined levels of oxacillin, vancomycin, trimethoprim-sulfamethoxazole (BACTRIM™), doxycycline, daptomycin, or linezolid. Aliquots are taken from these media at time intervals, and the aliquots are subjected to T2MR-based direct detection of S. aureus cells, as described, for example, in Example 4 of International Patent Publication No. WO 2012/129281. S. aureus cells are detected by labeling with magnetic nanoparticles. […]

S. aureus = assay: administration to the subject with bacteremia (S. aureus); format: in vivo, human
S. aureus isolate [3] = assay: agar-based antimicrobial gradient test (e.g., ETEST); format: cell-based; details: S. aureus isolate from subject's blood, Example 3
Protocol: as §1, with “from bacteremia.” for “from Candidemia.”, “example, the method” for “example, as”, “Example 22 of WO 2012/054639 in conjunction with a T2Dx® device.” for “Example 1 above.”, “identifies S. aureus” for “identifies Candida albicans”, “blood sample within 3 hours from the start of the assay.” for “blood sample.”
as §2

**Q.** For `C[C@@H]1[C@H](O)[C@@H](C)/C=C/C=C/C=C/C=C/C=C/C=C/C=C/[C@H](O[C@@H]2O[C@H](C)[C@@H](O)[C@H](N)[C@@H]2O)C[C@@H]2O[C@](O)(C[C@@H](O)C[C@@H](O)[C@H](O)CC[C@@H](O)C[C@@H](O)CC(=O)O[C@H]1C)C[C@H](O)[C@H]2C(=O)O` [amphotericin B], which “treatment outcome in the subject after switch from fluconazole” value (Candida albicans; MDR1 expression elevated after fluconazole, therapy switched, Example 5) is on record?
**A.** Its value is “successful in treating the subject”.

**Q.** For `OC(Cn1cncn1)(Cn1cncn1)c1ccc(F)cc1F` [fluconazole], which “treatment outcome in the subject” value (Candida albicans; appropriate dose, subject with Candidemia (C. albicans)) is on record?
**A.** Its value is “treating the subject's Candidemia”.

**Q.** And the “antimicrobial susceptibility of the isolate” value (Candida albicans isolate)?
**A.** The value was “particularly sensitive”.

**Q.** What about the “antimicrobial susceptibility of the isolate, growth curve of T2 signal over time” value (from here on “antimicrobial susceptibility … over time”) (C. albicans isolate) of the same compound?
**A.** The value was “particularly sensitive”.

**Q.** And the “treatment outcome in the subject” value (Candida glabrata)?
**A.** Its value is “treating the subject's Candidemia”.

**Q.** And the “antimicrobial susceptibility … over time” value (C. glabrata isolate)?
**A.** Its value is “particularly sensitive”.

**Q.** How did the “antimicrobial resistance of the isolate, based on the color of the colonies” value (S. aureus isolate [1]) turn out when `COc1cccc(OC)c1C(=O)N[C@@H]1C(=O)N2[C@@H]1SC(C)(C)[C@@H]2C(=O)O` [methicillin] was run?
**A.** The value was “resistant”.

**Q.** `CN[C@H](CC(C)C)C(=O)N[C@H]1C(=O)N[C@@H](CC(N)=O)C(=O)N[C@H]2C(=O)N[C@H]3C(=O)N[C@H](C(=O)N[C@H](C(=O)O)c4cc(O)cc(O)c4-c4cc3ccc4O)[C@H](O)c3ccc(c(Cl)c3)Oc3cc2cc(c3O[C@@H]2O[C@H](CO)[C@@H](O)[C@H](O)[C@H]2O[C@H]2C[C@](C)(N)[C@H](O)[C@H](C)O2)Oc2ccc(cc2Cl)[C@H]1O` [vancomycin] was tested. Which “antimicrobial susceptibility … over time” value (S. aureus isolate [2]) did it give?
**A.** Its value is “particularly sensitive”.

**Q.** What about the “treatment outcome in the subject” value (S. aureus) of the same compound?
**A.** The value was “treating the subject's bacteremia”.

**Q.** Which results are given for trimethoprim-sulfamethoxazole?
**A.** antimicrobial susceptibility of the isolate (S. aureus isolate [3]): sensitive; treatment outcome in the subject (S. aureus): treating the bacteremia
